We go through 44 compounds from US10174038B2, “Compounds and methods for antiviral treatment” (Gilead Sciences, Inc., priority 2012, dated 2019).

As a reminder, the inhibition is the relative decrease from the control value, in per cent.

The first test relates to RSV strain A2. The test is described as follows: RSV antiviral activity, in vitro cytoprotection assay in Hep2 cells. The test is classed as cell-based, Respiratory Syncytial Virus (RSV). Particulars: 0.5 μM compound; RSV-induced cytopathic effect in Hep2 cells; % inhibition calculated from fitted 4-parameter dose response curve, normalized to 0% and 100%. On the procedure: Antiviral activity against RSV was determined using an in vitro cytoprotection assay in Hep2 cells. […] The method used was similar to methods previously described in published literature (Chapman et al., Antimicrob Agents Chemother. 2007, 51(9):3346-53.)
Hep2 cells were obtained from ATCC (Manassas, Va.) and maintained in MEM media supplemented with 10% fetal bovine serum and penicillin/streptomycin. Cells were passaged twice a week and kept at subconfluent stage. Commercial stock of RSV strain A2 (Advanced Biotechnologies, Columbia, Md.) was titered before compound testing to determine the appropriate dilution of the virus stock that generated desirable cytopathic effect in Hep2 cells.
For antiviral tests, Hep2 cells were seeded into 96-well plates 24 hours before the assay at a density of 3,000 cells/well. On a separate 96 well plate, compounds to be tested were serially diluted in cell culture media. Eight concentrations in 3-fold serial dilution increments were prepared for each tested compound and 100 uL/well of each dilution was transferred in duplicate onto plates with seeded Hep2 cells. Subsequently, appropriate dilution of virus stock previously determined by titration was prepared in cell culture media and 100 uL/well was added to test plates containing cells and serially diluted compounds. Each plate included three wells of infected untreated cells and three wells of uninfected cells that served as 0% and 100% virus inhibition control, respectively. Following the infection with RSV, testing plates were incubated for 4 days in a tissue culture incubator. After the incubation, RSV-induced cytopathic effect was determined using a Cell TiterGlo reagent (Promega, Madison, Wis.) followed by a luminescence read-out. The percentage inhibition was calculated for each tested concentration relative to the 0% and 100% inhibition controls and the EC50 value for each compound was determined by non-linear regression as a concentration inhibiting the RSV-induced cytopathic effect by 50%. Ribavirin (purchased from Sigma, St. Louis, Mo.) was used as a positive control for antiviral activity.
Compounds were also tested for antiviral activity against RSV in Hep2 cells using a 384 well format. Compounds were diluted in DMSO using a 10-step serial dilution in 3-fold increments via automation in 4 adjacent replicates each. Eight compounds were tested per dilution plate. 0.4 uL of diluted compounds were then stamped via Biomek into 384-well plates (Nunc 142761 or 164730 w/lid 264616) containing 20 μL of media (Mediatech Inc. MEM supplemented with Glutamine, 10% FBS and Pen/Strep). DMSO and a suitable positive control compound, such as 80 μM GS-329467 or 10 μM 427346 was used for the 100% and 0% cell killing controls, respectively.
Hep2 cells (1.0×10^5 cells/ml) were prepared as above in batch to at least 40 mls excess of the number of sample plates (8 mls cell mix per plate) and infected with vendor supplied (ABI) RSV strain A2 to arrive at an MOI of 1:1000 (virus:cell #) or 1:3000 (vol virus:cell vol). Immediately after addition of virus, the RSV infected Hep2 cell suspension was added to each stamped 384-well plate at 20 μl per well using a uFlow dispenser, giving a final volume of 40 μL/well, each with 2000 infected cells. The plates were then incubated for 5 days at 37° C. and 5% CO2. Following incubation, the plates were equilibrated to room temperature in a biosafety cabinet hood for 1.5 hrs and 40 μL of Cell-Titer Glo viability reagent (Promega) was added to each well via uFlow. Following a 10-20 minute incubation, the plates were read using an EnVision or Victor Luminescence plate reader (Perkin-Elmer). The data was then uploaded and analyzed on the Bioinformatics portal under the RSV Cell Infectivity and 8-plate EC50-Hep2-384 or 8-plate EC50-Hep2-Envision protocols. […]
Consider `Cc1cc(C2CC2)nc2cc([C@@H]3CCCCN3C(=O)c3ccc(Cl)c(F)c3NS(C)(=O)=O)nn12` [Compound 31], for which the “Percent inhibition at 0.5 μM” value is reported as 86%.

Still in this test, the particulars now being: human respiratory syncytial virus, HEp-2, read-out: Percent inhibition at 0.5 μM.
Take `CS(=O)(=O)Nc1ccc(Cl)cc1C(=O)N1CCCC[C@H]1c1cc2nc(N3CCC3)cc(NCCN)n2n1` [Compound 20]: the inhibition at 0.5 µM stood at 100%.

The same test, now with this note: human respiratory syncytial virus, HEp-2; 0.5 μM compound; RSV-induced cytopathic effect in Hep2 cells; % inhibition calculated from fitted 4-parameter dose response curve, normalized to 0% and 100%; read-out: Percent inhibition at 0.5 μM.
For `CC1CN(c2cc(N3CCOCC3)n3nc([C@@H]4CCCCN4C(=O)c4cc(Cl)ccc4NS(C)(=O)=O)cc3n2)C1` [Compound 1], the inhibition at 0.5 µM is 95%.

Turning to `Cc1cn2nc([C@@H]3CCCCN3C(=O)c3cc(Cl)ccc3NS(C)(=O)=O)cc2nc1N[C@@H](C)CO` [Compound 2], the inhibition at 0.5 µM was 97%. Consider `Cc1ccc(C(=O)N2CCCC[C@H]2c2cc3nc(N4CC[C@H](N)C4)c(C)cn3n2)c(C)c1` [Compound 4], for which the inhibition at 0.5 µM was 100%. On the same count and under the same terms, to `Cc1cn2nc([C@@H]3CCCCN3C(=O)c3ccccc3)cc2nc1N1CC[C@H](N)C1` [Compound 5] belongs 100%; to `Cc1cccnc1C(=O)N1CCCC[C@H]1c1cc2nc(N3CC[C@H](N)C3)c(C)cn2n1` [Compound 6], 100%. Still for that read-out and setting: under `Cc1ccncc1C(=O)N1CCCC[C@H]1c1cc2nc(N3CC[C@H](N)C3)c(C)cn2n1` [Compound 7] stands 100%. Turning to `COc1ccc(C)cc1C(=O)N1CCCC[C@H]1c1cc2nc(N3CC[C@H](N)C3)c(C)cn2n1` [Compound 8], the inhibition at 0.5 µM was 100%. For the compound `Cc1cn2nc([C@@H]3CCCCN3C(=O)c3ccccc3OC(F)(F)F)cc2nc1N1CC[C@H](N)C1` [Compound 9], the inhibition at 0.5 µM is 100%.

Consider `COc1ccc(Cl)cc1C(=O)N1CCCC[C@H]1c1cc2nc(N3CC[C@H](N)C3)c(C)cn2n1` [Compound 10], for which the inhibition at 0.5 µM is 100%.

On to `Cc1ccc(N2CCCS2(=O)=O)c(C(=O)N2CCCC[C@H]2c2cc3nc(N4CC[C@H](N)C4)c(C)cn3n2)c1` [Compound 11], for which the inhibition at 0.5 µM was 100%. Consider `Cc1cc(NS(C)(=O)=O)c(C(=O)N2CCCC[C@H]2c2cc3nc(N4CC[C@H](N)C4)c(C)cn3n2)s1` [Compound 12], for which the inhibition at 0.5 µM is 100%. As to `CC(=O)Nc1sccc1C(=O)N1CCCC[C@H]1c1cc2nc(N3CC[C@H](N)C3)c(C)cn2n1` [Compound 13], the inhibition at 0.5 µM is 98%. For the compound `Cc1cnc(N)c(C(=O)N2CCCC[C@H]2c2cc3nc(N4CC[C@H](N)C4)c(C)cn3n2)c1` [Compound 14], the inhibition at 0.5 µM is 97%. With `Cc1cn2nc([C@@H]3CCCCN3C(=O)c3n[nH]c4ccc(F)cc34)cc2nc1N1CC[C@H](N)C1` [Compound 15], the inhibition at 0.5 µM was 92%. With `Cc1cn2nc([C@@H]3CCCCN3C(=O)c3cccc(C)c3O)cc2nc1N1CC[C@H](N)C1` [Compound 16], the inhibition at 0.5 µM was 100%. Turning to `Cc1cn2nc([C@@H]3CCCCN3C(=O)c3cc4ccccc4[nH]3)cc2nc1N1CC[C@H](N)C1` [Compound 17], the inhibition at 0.5 µM is 96%. For the compound `Cc1cn2nc([C@@H]3CCCCN3C(=O)c3ncccc3Cl)cc2nc1N1CC[C@H](N)C1` [Compound 18], the inhibition at 0.5 µM is 100%. Take `CS(=O)(=O)Nc1ccc(Cl)cc1C(=O)N1CCCC[C@H]1c1cc2nc(N3CCC3)cc(N3CCN[C@@H](CO)C3)n2n1` [Compound 19]: the inhibition at 0.5 µM is 100%. For the compound `Cc1cn2nc([C@@H]3CCCCN3C(=O)c3cc(Cl)ccc3NS(C)(=O)=O)cc2nc1N1CC[C@H](CN)C1` [Compound 21], the inhibition at 0.5 µM is 100%. In the case of `Cc1cn2nc([C@@H]3CCCCN3C(=O)C(NS(C)(=O)=O)c3ccccc3Cl)cc2nc1N1C[C@@H](C#N)[C@@H](O)C1` (some centres unmarked) [Compound 22], the inhibition at 0.5 µM was 100%. For the compound `Cc1cn2nc([C@@H]3CCCCN3C(=O)C(NS(C)(=O)=O)c3ccccc3Br)cc2nc1N1C[C@@H](C#N)[C@@H](O)C1` (some centres unmarked) [Compound 23], the inhibition at 0.5 µM was 100%.

With `CNc1c(C)c(C)nc2cc([C@@H]3CCCCN3C(=O)c3cc(F)cc(Cl)c3NS(C)(=O)=O)nn12` [Compound 24], the inhibition at 0.5 µM was 91%. Still for that read-out and setting: to `CNc1c(C)c(C)nc2cc([C@@H]3CCCCN3C(=O)c3cc(Cl)cc(C)c3NS(C)(=O)=O)nn12` [Compound 25] belongs 97%. With `Cc1cc(C2CC2)nc2cc([C@@H]3CCCCN3C(=O)c3cc(Cl)cc(Cl)c3NS(C)(=O)=O)nn12` [Compound 26], the inhibition at 0.5 µM is 97%.

Take `Cc1cn2nc([C@@H]3CCCCN3C(=O)[C@](C)(NS(C)(=O)=O)c3ccccc3)cc2nc1N1CC[C@H](N)C1` [Compound 27]: the inhibition at 0.5 µM was 100%.

Consider `Cc1cn2nc([C@@H]3CCCCN3C(=O)[C@@](C)(NS(C)(=O)=O)c3ccccc3)cc2nc1N1CC[C@H](N)C1` [Compound 28], for which the inhibition at 0.5 µM was 100%. Turning to `Cc1cc(C2CC2)nc2cc([C@@H]3CCCCN3C(=O)c3cc(Cl)cc(F)c3NS(C)(=O)=O)nn12` [Compound 29], the inhibition at 0.5 µM is 90%.

With `Cc1cc(C2CC2)nc2cc([C@@H]3CCCCN3C(=O)c3cc(Cl)c(F)cc3NS(C)(=O)=O)nn12` [Compound 30], the inhibition at 0.5 µM is 91%. As for `Cc1nc2cc([C@@H]3CCCCN3C(=O)c3cc(F)cc(Cl)c3NS(C)(=O)=O)nn2c(C)c1C` [Compound 32], the inhibition at 0.5 µM is 85%.

Take `Cc1cn2nc([C@@H]3CCCCN3C(=O)C(NS(C)(=O)=O)c3ccccc3Br)cc2nc1N1CC[C@H](N)C1` (some centres unmarked) [Compound 33]: the inhibition at 0.5 µM is 100%. As to `Cc1cn2nc([C@@H]3CCCCN3C(=O)C(NS(C)(=O)=O)c3ccccc3Cl)cc2nc1N1CC[C@H](N)C1` (some centres unmarked) [Compound 34], the inhibition at 0.5 µM was 100%. In the case of `Cc1cn2nc([C@@H]3CCCCN3C(=O)c3cc(Cl)ccc3CN=[N+]=[N-])cc2nc1N1CC[C@H](N)C1` [Compound 35], the inhibition at 0.5 µM was 100%.

Regarding `Cc1cn2nc([C@@H]3CCCCN3C(=O)c3cc(Cl)ccc3CNS(C)(=O)=O)cc2nc1N1CC[C@H](N)C1` [Compound 36], the inhibition at 0.5 µM is 100%. Turning to `Cc1cn2nc([C@@H]3CCCCN3C(=O)c3cc(Cl)ccc3CN)cc2nc1N1CC[C@H](N)C1` [Compound 37], the inhibition at 0.5 µM was 100%. On the same count and under the same terms, under `Cc1cn2nc([C@@H]3CCCCN3C(=O)c3cc(Cl)ccc3NS(C)(=O)=O)cc2nc1N1CCC1C` (some centres unmarked) [Compound 40] stands 100%. `C#CC1CCN(c2nc3cc([C@@H]4CCCCN4C(=O)c4cc(Cl)ccc4NS(C)(=O)=O)nn3cc2C)C1` (some centres unmarked) [Compound 41]: the inhibition at 0.5 µM was 100%. For `Cc1cn2nc([C@@H]3CCCCN3C(=O)c3cc(Cl)ccc3NS(C)(=O)=O)cc2nc1N1CCC12CNC2` [Compound 42], the inhibition at 0.5 µM is 100%.

As for `CS(=O)(=O)Nc1ccc(Cl)cc1C(=O)N1CCCC[C@H]1c1cc2nc(N3CCC3)cc(N3CCNC(C#N)C3)n2n1` (some centres unmarked) [Compound 43], the inhibition at 0.5 µM is 100%. For the compound `Cc1cc(N2CC[C@H](N)C2)nc2cc([C@@H]3CCCCN3C(=O)c3cc(Cl)ccc3NS(C)(=O)=O)nn12` [Compound 44], the inhibition at 0.5 µM was 100%. In the case of `Cc1cccc(NS(C)(=O)=O)c1C(=O)N1CCCC[C@H]1c1cc2nc(C3CC3)cc(C)n2n1` [Compound 45], the inhibition at 0.5 µM is 100%. For the compound `Cc1cc(C2CC2)nc2cc([C@@H]3CCCCN3C(=O)c3ccccc3NS(C)(=O)=O)nn12` [Compound 46], the inhibition at 0.5 µM is 97%. Take `Cc1cc(C2CC2)nc2cc([C@@H]3CCCCN3C(=O)c3c(NS(C)(=O)=O)cccc3C(F)(F)F)nn12` [Compound 47]: the inhibition at 0.5 µM is 99%.
